Measured values from PubChem BioAssay AID248 (DTP/NCI, 2004).
Where “and” joins values, the source holds several entries; their conditions need not be identical. Equal values may be shown once. Toxic doses and inconclusive results are not listed. Rule as the data show it: active = T/C of 150% or more; inactive = T/C below 125%.

Test system: L1210 leukemia ip in BDF1 mice, survival T/C
Test: NCI In Vivo Anticancer Drug Screen. Data for tumor model L1210 Leukemia (intraperitoneal) in B6D2F1 (BDF1) mice
Settings: endpoint: mean survival time, higher = longer survival
Summary of the method: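 Each compound was tested against a transplantable tumor grown in mice. The endpoint was survival, with treated animals benchmarked against vehicle controls as a simple ratio.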

[1] = dose: 100.0 mg/kg/injection, schedule: Q01DX009 (ip), vehicle: saline with Tween-80
[2] = dose: 100.0 mg/kg/injection, schedule: Q04DX003 (ip), vehicle: saline
[3] = dose: 200.0 mg/kg/injection, schedule: Q01DX009 (ip), vehicle: saline with Tween-80
[4] = dose: 200.0 mg/kg/injection, schedule: Q04DX003 (ip), vehicle: saline
[5] = dose: 400.0 mg/kg/injection, schedule: Q01DX009 (ip), vehicle: saline with Tween-80
[6] = dose: 400.0 mg/kg/injection, schedule: Q04DX003 (ip), vehicle: saline
[7] = dose: 100.0 mg/kg/injection, schedule: Q04DX003 (ip), vehicle: Klucel (hydroxypropylcellulose) (HPC)
[8] = dose: 200.0 mg/kg/injection, schedule: Q04DX003 (ip), vehicle: Klucel (hydroxypropylcellulose) (HPC)
[9] = dose: 400.0 mg/kg/injection, schedule: Q04DX003 (ip), vehicle: Klucel (hydroxypropylcellulose) (HPC)
[10] = dose: 100.0 mg/kg/injection, schedule: Q04DX003 (ip), vehicle: saline with Tween-80
[11] = dose: 200.0 mg/kg/injection, schedule: Q04DX003 (ip), vehicle: saline with Tween-80
[12] = dose: 400.0 mg/kg/injection, schedule: Q04DX003 (ip), vehicle: saline with Tween-80
[13] = dose: 100.0 mg/kg/injection, schedule: Q01DX001 (ip), vehicle: saline
[14] = dose: 200.0 mg/kg/injection, schedule: Q01DX001 (ip), vehicle: saline
[15] = dose: 400.0 mg/kg/injection, schedule: Q01DX001 (ip), vehicle: saline
[16] = dose: 100.0 mg/kg/injection, schedule: Q04DX002 (ip), vehicle: Klucel (hydroxypropylcellulose) (HPC)
[17] = dose: 200.0 mg/kg/injection, schedule: Q04DX002 (ip), vehicle: Klucel (hydroxypropylcellulose) (HPC)
[18] = dose: 400.0 mg/kg/injection, schedule: Q04DX002 (ip), vehicle: Klucel (hydroxypropylcellulose) (HPC)

Measured: T/C

CCN1/C(=C/C=C/C=C/c2sc3ccccc3[n+]2CC)Sc2ccccc21
inactive: dose: 0.04 mg/kg/injection, schedule: Q01DX009 (ip), vehicle: saline 110 % of control | dose: 0.08 mg/kg/injection, schedule: Q01DX009 (ip), vehicle: saline 93 % of control | dose: 0.09 mg/kg/injection, schedule: Q01DX009 (ip), vehicle: saline 117 % of control | dose: 0.09 mg/kg/injection, schedule: Q04DX003 (ip), vehicle: saline 102 % of control | dose: 0.19 mg/kg/injection, schedule: Q01DX009 (ip), vehicle: saline 122 % of control | dose: 0.19 mg/kg/injection, schedule: Q04DX002 (ip), vehicle: saline 102 % of control | dose: 0.19 mg/kg/injection, schedule: Q04DX003 (ip), vehicle: saline 102 % of control | dose: 0.32 mg/kg/injection, schedule: Q01DX009 (ip), vehicle: saline 88 % of control | dose: 0.37 mg/kg/injection, schedule: Q01DX001 (ip), vehicle: saline 95 % of control | dose: 0.38 mg/kg/injection, schedule: Q01DX009 (ip), vehicle: saline 96 % of control | dose: 0.38 mg/kg/injection, schedule: Q04DX002 (ip), vehicle: saline 103 % of control | dose: 0.38 mg/kg/injection, schedule: Q04DX003 (ip), vehicle: saline 105 % of control | dose: 0.39 mg/kg/injection, schedule: Q01DX009 (ip), vehicle: saline 109 % of control | dose: 0.62 mg/kg/injection, schedule: Q01DX001 (ip), vehicle: other 105 % of control | dose: 0.75 mg/kg/injection, schedule: Q01DX001 (ip), vehicle: saline 102 % of control | dose: 0.76 mg/kg/injection, schedule: Q04DX002 (ip), vehicle: saline 107 % of control | dose: 0.76 mg/kg/injection, schedule: Q04DX003 (ip), vehicle: saline 103 % of control | dose: 0.8 mg/kg/injection, schedule: Q01DX001 (ip), vehicle: saline 105 % of control | dose: 1.25 mg/kg/injection, schedule: Q01DX001 (ip), vehicle: other 110 % of control | dose: 1.5 mg/kg/injection, schedule: Q01DX001 (ip), vehicle: saline 105 % of control | dose: 1.5 mg/kg/injection, schedule: Q04DX002 (ip), vehicle: saline 110 % of control | dose: 2.5 mg/kg/injection, schedule: Q01DX001 (ip), vehicle: other 115 % of control | dose: 3.0 mg/kg/injection, schedule: Q01DX001 (ip), vehicle: saline 110 % of control | dose: 5.0 mg/kg/injection, schedule: Q01DX001 (ip), vehicle: other 107 % of control

CCC(=O)C(CC)c1ccccc1OC (stereo not given)
inactive: [1] 95 % of control | [2] 94 % of control | [3] 95 % of control | [4] 97 % of control | [5] 108 % of control | [6] 97 % of control

O=P(CCC(O)c1ccccc1)(c1ccccc1)c1ccccc1 (stereo not given)
inactive: dose: 100.0 mg/kg/injection, schedule: Q01DX001 (ip), vehicle: saline with Tween-80 93 % of control | dose: 200.0 mg/kg/injection, schedule: Q01DX001 (ip), vehicle: saline with Tween-80 106 % of control | dose: 400.0 mg/kg/injection, schedule: Q01DX001 (ip), vehicle: saline with Tween-80 100 % of control

CCOC(=O)c1cnc(SCc2ccccc2)[nH]c1=O
inactive: [1] 101 % of control | [3] 91 % of control | [5] 92 % of control

O=[N+]([O-])c1ccc(N/N=C(\CBr)c2ccccc2)c([N+](=O)[O-])c1
inactive: [1] 94 % of control | [3] 95 % of control | [5] 94 % of control

O=C(CC(=O)c1cccc([N+](=O)[O-])c1)Nc1ccccc1Br
inactive: [7] 94 % of control | [8] 91 % of control | [9] 94 % of control

NC(CCl)=NCCCCN=C(N)CCl
inactive: dose: 12.5 mg/kg/injection, schedule: Q01DX009 (ip), vehicle: saline 108 % of control | dose: 12.5 mg/kg/injection, schedule: Q04DX002 (ip), vehicle: saline 100 % of control | dose: 25.0 mg/kg/injection, schedule: Q01DX009 (ip), vehicle: saline 101 % of control | dose: 25.0 mg/kg/injection, schedule: Q04DX002 (ip), vehicle: saline 124 % of control

CCOC(=O)C1=C(C)NC(=O)NC1c1ccc(N=Cc2cc(Br)ccc2O)cc1 (stereo not given)
inactive: [10] 97 % of control | [11] 97 % of control | [12] 89 % of control

CN(/N=C/c1ccccc1)C(=S)Nc1ccccc1
inactive: dose: 62.5 mg/kg/injection, schedule: Q04DX003 (ip), vehicle: Klucel (hydroxypropylcellulose) (HPC) 100 % of control | dose: 250.0 mg/kg/injection, schedule: Q04DX003 (ip), vehicle: Klucel (hydroxypropylcellulose) (HPC) 103 % of control

Nc1nc([Se]c2ccc([N+](=O)[O-])cc2)c2ncn(C3CC(O)C(CO)O3)c2n1 (stereo not given)
inactive: dose: 100.0 mg/kg/injection, schedule: Q01DX005 (ip), vehicle: saline 100 % of control | dose: 200.0 mg/kg/injection, schedule: Q01DX005 (ip), vehicle: saline 100 % of control

CC(/C=N/NC(=O)NO)=N\NC(=O)NO
inactive: dose: 100.0 mg/kg/injection, schedule: Q01DX001 (ip), vehicle: other 98 % of control | [1] 98 % of control | dose: 100.0 mg/kg/injection, schedule: Q04DX003 (ip), vehicle: other 112 % of control | dose: 200.0 mg/kg/injection, schedule: Q01DX001 (ip), vehicle: other 98 % of control | [3] 97 % of control | dose: 200.0 mg/kg/injection, schedule: Q04DX003 (ip), vehicle: other 102 % of control | dose: 400.0 mg/kg/injection, schedule: Q01DX001 (ip), vehicle: other 104 % of control | [5] 104 % of control | dose: 400.0 mg/kg/injection, schedule: Q04DX003 (ip), vehicle: other 98 % of control

CN(C)C(CCN1CCCCC1)CN1CCCCC1 (stereo not given)
inactive: [13] 100 % of control | [14] 96 % of control | [15] 90 % of control

CCOc1ccc2nc(S(N)(=O)=O)sc2c1
inactive: dose: 100.0 mg/kg/injection, schedule: Q01DX Z (ip), vehicle: saline 100 % of control | dose: 200.0 mg/kg/injection, schedule: Q01DX Z (ip), vehicle: saline 97 % of control | dose: 400.0 mg/kg/injection, schedule: Q01DX Z (ip), vehicle: saline 111 % of control

Cc1cccc(NC(=O)C2CCCCC2C(=O)O)c1C (stereo not given)
inactive: [16] 100 % of control | [17] 107 % of control | [18] 92 % of control

COC1OC(CO)C2OC12 (stereo not given)
inactive: dose: 75.0 mg/kg/injection, schedule: Q01DX009 (ip), vehicle: saline 98 % of control and 107 % of control | [13] 104 % of control | [2] 107 % of control and 100 % of control | dose: 150.0 mg/kg/injection, schedule: Q01DX009 (ip), vehicle: saline 110 % of control and 93 % of control | [14] 102 % of control and 96 % of control | [4] 98 % of control and 89 % of control | dose: 300.0 mg/kg/injection, schedule: Q01DX009 (ip), vehicle: saline 102 % of control and 100 % of control | [15] 104 % of control | [6] 100 % of control and 104 % of control

O=C(O)c1cc(I)cc(I)c1I
inactive: [16] 105 % of control | [17] 88 % of control | [18] 102 % of control

CC1=C/C(=N\N2CCOCC2)C(C(O)(C(F)(F)F)C(F)(F)F)C(C)(C)C1 (stereo not given)
inactive: [2] 98 % of control | [4] 98 % of control | [6] 96 % of control

O=C1CC2=CC3C=CC(N1)C2c1ccccc13 (stereo not given)
inactive: [10] 101 % of control | [11] 93 % of control | [12] 93 % of control

CC(C)(CO)NCC(C)(C)[N+](=O)[O-]
inactive: [7] 103 % of control | [8] 102 % of control | [9] 112 % of control

CCOC(=O)NC(NC(=O)OCC)C(NC(=O)OCC)NC(=O)OCC
inactive: dose: 100.0 mg/kg/injection, schedule: Q01DX001 (ip), vehicle: carboxymethylcellulose (CMC) 87 % of control | dose: 200.0 mg/kg/injection, schedule: Q01DX001 (ip), vehicle: carboxymethylcellulose (CMC) 91 % of control | dose: 400.0 mg/kg/injection, schedule: Q01DX001 (ip), vehicle: carboxymethylcellulose (CMC) 91 % of control
